Measurements from patent US20250122223A1, “HETEROCYCLIC COMPOUNDS AS UBIQUITIN SPECIFIC PROTEASE 7 INHIBITORS” (ALMAC DISCOVERY LIMITED, priority 2022, published 2025).

How the values were obtained:
USP7 [1] = target: T1, USP7 (Homo sapiens (Human), UniProt Q93009); experiment: USP7 fluorescence polarisation (FP) assay with ubiquitin-Lys-TAMRA substrate; type: biochemical
USP7 [2] = target: T1, USP7; experiment: Target engagement assay-HTRF, competition with HA-Ub-VPS probe in HEK293 cells stably expressing Flag-tagged USP7; type: cell-based; conditions: HEK293 stable clone M6C5, 2 h treatment; read-out: Cellular target engagement: HEK293 Stable clone M6C5 USP7 IC50
Protocol: HEK293 cells stably expressing Flag-tagged USP7 were treated with vehicle (DMSO) or compound (using 50 μM starting concentration and 11 dp using 1:3 serial dilution) for 2 h and subsequently lysed on ice and homogenised. Cell lysate and HA-Ub-VPS probe was then added to a white flat bottomed 384 well plate (Greiner) to a total volume of 10 μL and incubated for 40 min. 10 μL of D2 and Tb detection antibodies were subsequently added to give a final assay volume of 20 μL. Following incubation, HTRF were measured using a Pherastar FSX (BMG Labtech) exciting at 337 nm and measuring the emission at 620/665 nm. The HTRF ratiometric signal was derived and subsequently normalised to the lysate only controls. Data were plotted and fitted, and the concentrations resulting in 50% inhibition (IC50) were calculated using the non-linear regression curve fitting model using GraphPad Prism. IC50 values for the inhibitors of the invention are compiled in Table 1 above and represent the average of at least duplicate experiments.

[3] = average of at least duplicate experiments, read-out: Biochemical: USP7 IC50
[4] = biochemical inhibition, read-out: USP7 IC50 activity (Table 3a, classes)
[5] = biochemical inhibition, unit not given in Table 3b (Table 1 and key of Table 3a use μM), read-out: USP7 IC50 activity (Table 3b)

T1 sequence (Q93009 whole entry): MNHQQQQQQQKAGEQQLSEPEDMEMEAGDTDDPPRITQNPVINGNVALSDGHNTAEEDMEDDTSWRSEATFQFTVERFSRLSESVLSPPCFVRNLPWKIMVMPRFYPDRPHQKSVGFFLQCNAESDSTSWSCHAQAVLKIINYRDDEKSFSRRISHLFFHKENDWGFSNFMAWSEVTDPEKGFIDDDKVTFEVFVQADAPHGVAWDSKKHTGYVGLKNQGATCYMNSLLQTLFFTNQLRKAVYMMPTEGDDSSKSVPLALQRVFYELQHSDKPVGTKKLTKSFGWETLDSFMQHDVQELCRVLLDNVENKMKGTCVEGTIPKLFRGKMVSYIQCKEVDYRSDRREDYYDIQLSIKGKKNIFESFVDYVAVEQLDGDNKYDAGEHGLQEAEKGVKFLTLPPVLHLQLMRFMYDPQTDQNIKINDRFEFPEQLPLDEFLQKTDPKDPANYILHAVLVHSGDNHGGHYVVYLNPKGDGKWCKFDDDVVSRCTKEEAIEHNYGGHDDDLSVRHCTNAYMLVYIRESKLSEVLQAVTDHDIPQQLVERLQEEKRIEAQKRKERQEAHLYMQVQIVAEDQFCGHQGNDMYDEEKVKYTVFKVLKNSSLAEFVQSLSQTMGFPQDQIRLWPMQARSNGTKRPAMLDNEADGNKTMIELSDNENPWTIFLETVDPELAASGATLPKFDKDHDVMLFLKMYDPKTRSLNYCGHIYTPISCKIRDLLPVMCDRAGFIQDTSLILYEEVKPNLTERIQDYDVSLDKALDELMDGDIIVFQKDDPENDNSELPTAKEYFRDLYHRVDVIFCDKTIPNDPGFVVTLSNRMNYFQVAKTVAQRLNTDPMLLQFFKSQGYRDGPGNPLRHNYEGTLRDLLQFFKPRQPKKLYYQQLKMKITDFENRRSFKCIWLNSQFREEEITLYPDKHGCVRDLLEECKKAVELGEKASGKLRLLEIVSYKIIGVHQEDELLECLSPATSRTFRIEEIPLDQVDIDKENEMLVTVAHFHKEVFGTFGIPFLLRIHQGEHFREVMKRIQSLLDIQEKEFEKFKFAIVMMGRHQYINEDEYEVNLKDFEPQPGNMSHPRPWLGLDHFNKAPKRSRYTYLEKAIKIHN

| SMILES | IC50 (USP7 [1]; [3]) [µM] | IC50 (USP7 [1]; [4]) [µM] | IC50 (USP7 [1]; [5]) [µM] | IC50 (USP7 [2]) [µM] |
| --- | --- | --- | --- | --- |
| Cc1cc(-n2c(Cl)cc3c(=O)n(CC4(O)CCN(C(=O)C[C@H](c5ccccc5)C(F)(F)F)CC4)cnc32)ccc1[C@H]1CO[C@H](C)CN1 [Example 14, 6-Chloro-3-((4-hydroxy-1-((R)-4,4,4-trifluoro-3-phenylbutanoyl)piperidin-4-yl)methyl)-7-(3-methyl-4-((3S,6R)-6-methylmorpholin-3-yl)phenyl)-3,7-dihydro-4H-pyrrolo[2,3-d]pyrimidin-4-one] | 0.018 | < 0.1 | 0.018 | 0.04 |
| CC[C@H]1CN[C@H](c2ccc(-n3c(Cl)cc4c(=O)n(CC5(O)CCN(C(=O)[C@]6(C)C[C@H]6C(F)(F)F)CC5)cnc43)cc2)CO1 (single isomer, unassigned) [Example 66, 6-Chloro-7-(4-((3R,6S)-6-ethylmorpholin-3-yl)phenyl)-3-((4-hydroxy-1-((1 S,2S)-1-methyl-2-(trifluoromethyl)cyclopropane-1-carbonyl)piperidin-4-yl)methyl)-3,7-dihydro-4H-pyrrolo[2,3-d]pyrimidin-4-one or 6-chloro-7-(4-((3R,6S)-6-ethylmorpholin-3-yl)phenyl)-3-((4-hydroxy-1-((1R,2R)-1-methyl-2-(trifluoromethyl)cyclopropane-1-carbonyl)piperidin-4-yl)methyl)-3,7-dihydro-4H-pyrrolo[2,3-d]pyrimidin-4-one] | 0.063 | < 0.1 | 0.063 | 0.074 |
| Cc1cc(-n2c(Cl)cc3c(=O)n(CC4(O)CCN(C(=O)[C@]5(C)C[C@H]5C(F)(F)F)CC4)cnc32)ccc1[C@H]1CO[C@H](C)CN1 (single isomer, unassigned) [Example 62] | 0.038 | < 0.1 | 0.038 | 0.1 |
| Cc1cc(-n2c(Cl)cc3c(=O)n(CC4(O)CCN(C(=O)C5(C)CC5)CC4)cnc32)ccc1[C@@H]1COCCN1 (single isomer, unassigned) [Example 74] | – | 0.1 to 0.25 | 0.112 | – |
| Cc1ccc(C(=O)N2CCC(O)(Cn3cnc4c(cc(Cl)n4-c4ccc([C@H]5CO[C@H](C)CN5)c(C)c4)c3=O)CC2)c(Cl)c1 [Example 57, 6-Chloro-3-((1-(2-chloro-4-methylbenzoyl)-4-hydroxypiperidin-4-yl)methyl)-7-(3-methyl-4-((3S,6R)-6-methylmorpholin-3-yl)phenyl)-3,7-dihydro-4H-pyrrolo[2,3-d]pyrimidin-4-one] | – | < 0.1 | 0.084 | – |
| C[C@H]1CN[C@H](c2ccc(-n3c(Cl)cc4c(=O)n(CC5(O)CCN(C(=O)c6cccc(F)c6)CC5)cnc43)cc2)CO1 [Example 38, 6-Chloro-3-((1-(3-fluorobenzoyl)-4-hydroxypiperidin-4-yl)methyl)-7-(4-((3R,6S)-6-methylmorpholin-3-yl)phenyl)-3,7-dihydro-4H-pyrrolo[2,3-d]pyrimidin-4-one] | – | 0.25 to 2 | 0.302 | – |
| Cc1cc(-n2c(Cl)cc3c(=O)n(CC4(O)CCN(C(=O)c5ccc(C(F)(F)F)cc5)CC4)cnc32)ccc1[C@H]1CO[C@H](C)CN1 [Example 56, 6-Chloro-3-((4-hydroxy-1-(4-(trifluoromethyl)benzol)piperidin-4-yl)methyl)-7-(3-methyl-4-((3S,6R)-6-methylmorpholin-3-yl)phenyl)-3,7-dihydro-4H-pyrrolo[2,3-d]pyrimidin-4-one] | – | 0.1 to 0.25 | 0.113 | – |
| C[C@H]1CN[C@H](c2ccc(-n3c(Cl)cc4c(=O)n(CC5(O)CCN(C(=O)CCC6CC6)CC5)cnc43)cc2)CO1 [Example 103, 6-Chloro-3-((1-(3-cyclopropylpropanoyl)-4-hydroxypiperidin-4-yl)methyl)-7-(4-((3R,6S)-6-methylmorpholin-3-yl)phenyl)-3,7-dihydro-4H-pyrrolo[2,3-d]pyrimidin-4-one] | – | 0.1 to 0.25 | 0.211 | – |
| CC1(C)COCC(c2ccc(-n3c(Cl)cc4c(=O)n(CC5(O)CCN(C(=O)c6ccc(Cl)cc6)CC5)cnc43)cc2)N1 (stereo not drawn) [Example 16, 6-Chloro-3-((1-(4-chlorobenzoyl)-4-hydroxypiperidin-4-yl)methyl)-7-(4-(5,5-dimethylmorpholin-3-yl)phenyl)-3,7-dihydro-4H-pyrrolo[2,3-d]pyrimidin-4-one] | – | 0.1 to 0.25 | 0.249 | – |
| O=C(c1ccc(Cl)cc1)N1CCC(O)(Cn2cnc3c(cc(Cl)n3-c3ccc(C4COC5CCCCC5N4)cc3)c2=O)CC1 (stereo not drawn) [Example 53, 6-Chloro-3-((1-(4-chlorobenzoyl)-4-hydroxypiperidin-4-yl)methyl)-7-(4-(octahydro-2H-benzo[b][1,4]oxazin-3-yl)phenyl)-3,7-dihydro-4H-pyrrolo[2,3-d]pyrimidin-4-one] | – | 0.25 to 2 | 0.264 | – |
| CC1(C(=O)N2CCC(O)(Cn3cnc4c(cc(Cl)n4-c4ccc([C@H]5COCCN5)cc4)c3=O)CC2)CC1C(F)(F)F (stereo partly drawn) [Example 83, 6-Chloro-3-((4-hydroxy-1-(1-methyl-2-(trifluoromethyl)cyclopropane-1-carbonyl)piperidin-4-yl)methyl)-7-(4-((S)-morpholin-3-yl)phenyl)-3,7-dihydro-4H-pyrrolo[2,3-d]pyrimidin-4-one] | 0.028 | < 0.1 | 0.028 | 0.076 |
| Cc1cc(-n2c(Cl)cc3c(=O)n(CC4(O)CCN(C(=O)C5(C)CC5)CC4)cnc32)ccc1[C@H]1COCCN1 (single isomer, unassigned) [Example 73] | – | < 0.1 | 0.018 | – |
| CC1(C(=O)N2CCC(O)(Cn3cnc4c(cc(Cl)n4-c4ccc(C5(C)COCCN5)cc4)c3=O)CC2)CC1 (stereo not drawn) [Example 3, 6-Chloro-3-((4-hydroxy-1-(1-methylcyclopropane-1-carbonyl)piperidin-4-yl)methyl)-7-(4-(3-methylmorpholin-3-yl)phenyl)-3,7-dihydro-4H-pyrrolo[2,3-d]pyrimidin-4-one] | – | 0.1 to 0.25 | 0.132 | – |
| CC[C@H]1CN[C@H](c2ccc(-n3c(Cl)cc4c(=O)n(CC5(O)CCN(C(=O)[C@]6(C)C[C@H]6C)CC5)cnc43)cc2)CO1 [Example 96, 6-Chloro-3-((1-((1R,2R)-1,2-dimethylcyclopropane-1-carbonyl)-4-hydroxypiperidin-4-yl)methyl)-7-(4-((3R,6S)-6-ethylmorpholin-3-yl)phenyl)-3,7-dihydro-4H-pyrrolo[2,3-d]pyrimidin-4-one] | – | < 0.1 | 0.037 | – |
| C[C@H]1CN[C@H](c2ccc(-n3c(Cl)cc4c(=O)n(CC5(O)CCN(C(=O)[C@@]6(C)C[C@@H]6C(F)(F)F)CC5)cnc43)cc2)CO1 (single isomer, unassigned) [Example 33, 6-Chloro-3-((4-hydroxy-1-((1R,2R)-1-methyl-2-(trifluoromethyl)cyclopropane-1-carbonyl)piperidin-4-yl)methyl)-7-(4-((3R,6S)-6-methylmorpholin-3-yl)phenyl)-3,7-dihydro-4H-pyrrolo[2,3-d]pyrimidin-4-one or 6-chloro-3-((4-hydroxy-1-((1S,2S)-1-methyl-2-(trifluoromethyl)cyclopropane-1-carbonyl)piperidin-4-yl)methyl)-7-(4-((3R,6S)-6-methylmorpholin-3-yl)phenyl)-3,7-dihydro-4H-pyrrolo[2,3-d]pyrimidin-4-one] | – | 0.1 to 0.25 | 0.226 | – |
| Cc1cc(Cl)ccc1C(=O)N1CCC(O)(Cn2cnc3c(cc(Cl)n3-c3ccc([C@@H]4CO[C@@H](C)CN4)cc3)c2=O)CC1 [Example 90, 6-Chloro-3-((1-(4-chloro-2-methylbenzoyl)-4-hydroxypiperidin-4-yl)methyl)-7-(4-((3R,6S)-6-methylmorpholin-3-yl)phenyl)-3,7-dihydro-4H-pyrrolo[2,3-d]pyrimidin-4-one] | – | 0.25 to 2 | 0.293 | – |
| O=C(N1CCC(O)(Cn2cnc3c(cc(Cl)n3-c3ccc([C@@H]4COC5(CCC5)CN4)cc3)c2=O)CC1)C1(C2CC2)CC1 (racemic) [Example 43, 7-(4-(5-Oxa-8-azaspiro[3.5]nonan-7-yl)phenyl)-3-((1-([1,1′-bi(cyclopropane)]-1-carbonyl)-4-hydroxypiperidin-4-yl)methyl)-6-chloro-3,7-dihydro-4H-pyrrolo[2,3-d]pyrimidin-4-one] | – | < 0.1 | 0.05 | – |
| O=C(C[C@H](c1ccccc1)C(F)F)N1CCC(O)(Cn2cnc3c(cc(Cl)n3-c3ccc([C@@H]4COCCN4)cc3)c2=O)CC1 (single isomer, unassigned) [Example 85] | – | < 0.1 | 0.006 | – |
| C[C@@H]1OCCN[C@H]1c1ccc(-n2c(Cl)cc3c(=O)n(CC4(O)CCN(C(=O)c5ccc(Cl)cc5)CC4)cnc32)cc1 [Example 6, 6-Chloro-3-((1-(4-chlorobenzoyl)-4-hydroxypiperidin-4-yl)methyl)-7-(4-((2S,3S)-2-methylmorpholin-3-yl)phenyl)-3,7-dihydro-4H-pyrrolo[2,3-d]pyrimidin-4-one] | – | < 0.1 | 0.05 | – |
| Cc1cc(-n2c(Cl)cc3c(=O)n(CC4(O)CCN(C(=O)c5ccc(C6CC6)cc5)CC4)cnc32)ccc1[C@H]1CO[C@H](C)CN1 [Example 93, 6-Chloro-3-((1-(4-cyclopropylbenzoyl)-4-hydroxypiperidin-4-yl)methyl)-7-(3-methyl-4-((3S,6R)-6-methylmorpholin-3-yl)phenyl)-3,7-dihydro-4H-pyrrolo[2,3-d]pyrimidin-4-one] | – | 0.1 to 0.25 | 0.16 | – |
